# In US8377455B2, “Biosurfactant composition produced by a new Bacillus licheniforms strain, uses and products thereof” (priority 2008, dated 2013):
# Like-named read-outs stand apart in the source and are kept apart here.
# Legend:
# [1] = system: E. coli CFT073 biofilm; test: Susceptibility of 24 h biofilm on CBD to antibiotics with or without V9T14 (MBEC, viable cell count, CLSM); type: cell-based, Escherichia coli; settings: for MBEC99.9%, Ab: 3 log10 reduction; for MBEC99.9%, AbBs: antibiotic plus 5 μg/mL V9T14 biosurfactant
# Description: (§1) Antibiotics were serially diluted (log2) using 0.9% saline in a 96-well microtiter plate, and then a solution of biosurfactant was added to each well to reach a final concentration of 5 μg/mL.
# (§2) E. coli CFT073 biofilms were grown on the CBD at 37° C. for 24 h in a rotatory shaker at 130 rpm, as described above. Then CBD lid was rinsed twice with 0.9% saline, exposed to the antibiotics and antibiotic plus biosurfactant microtiter plate and incubated at 37° C., 125 rpm for 24 h. After exposure, the CBD was removed and the 96-well microtiter plate was used to estimate minimal inhibitory concentration (MIC) and minimal bactericidal concentration (MBC99.99%) values. For MIC value, the plate was read using a spectrophotometer at 650 nm, MIC was defined as the lowest concentration not presenting turbidity; according to the guidelines of the American Clinical Laboratory Standards Institute, the minimum bactericidal concentration (MBC) is conventionally defined as a concentration of an antimicrobial agent that kills 3 log10 cells of a bacterial culture (or 99.9% of the bacteria). In our experiments we used a more restrictive criterion, defining the MBC99.99% value, defined as the lowest concentration of the antibiotic activity higher than 4 log10 by viable cell count. Minimal biofilm eradication concentration (MBEC99.9%) was defined as the lowest concentration to eradicate 3 log10 of the viable microorganisms in a biofilm.
# Pegs were broken from the lid of the CBD using pliers (Harrison et al. 2006) and then rinsed once with 0.9% saline to remove planktonic forms. Prior to examination by CLSM, biofilms were fluorescently stained with acridine orange (AO) (Sigma Chemical Co., St. Louis, Mo., USA). To stain biofilms, pegs were immersed in 0.1% w/v AO in PBS for 5 min at room temperature in the dark. To determine live and dead cell distribution in antibiotic experiments, rinsed biofilms were stained with Syto-9 (6.7 μM) and propidium iodide (40 μM) (Live/Dead® BacLight™ Kit, Molecular Probes, Burlington, ON, Canada) at 30° C. for 30 min. Fluorescently stained biofilms were placed in two drops of 0.9% saline on the surface of a glass coverslip. These pegs were examined using a Leica DM IRE2 spectral confocal and multiphoton microscope with a Leica TCS SP2 acoustic optical beam splitter (AOBS) (Leica Microsystems, Richmond Hill, ON, Canada). To minimize or eliminate artefacts associated with single and/or simultaneous dual wavelength excitation, all dual labelled samples were sequentially scanned, frame-by frame, first at 476 or 488 nm and then at 543 nm. Fluorescence emission Δ was then sequentially collected in the green and red regions of the spectrum, respectively. Line averaging (×2) was used to capture images with reduced noise. A 63× water immersion objective was used in all imaging experiments. Image capture and two dimensional projections of z-stacks were performed using Leica Confocal Software (LCS, Leica Microsystems).
# (§3) The difference attributed to synergy is expressed in Δ values between the log10 antibiotic cell count reduction and the log10 association value. “Eradication” was defined as no growth in antibiotic-free plates after planktonic culture initially incubated in antibiotic-containing LB broth.
# [2] = system: planktonic E. coli CFT073; test: Susceptibility of planktonic cultures to antibiotics with or without V9T14 (MIC by OD650, MBC by viable cell count); type: cell-based, Escherichia coli; settings: for change of MBC99.99% by V9T14 / effect of V9T14 on planktonic killing: 5 μg/mL V9T14; for MIC / MBC: Escherichia coli; for MBC: read-out: MBC99.99%, Ab; for MBC99.99%, AbBs: antibiotic plus 5 μg/mL V9T14 biosurfactant; for concentration at which complete eradication of planktonic cells was observed: antibiotic plus 5 μg/mL V9T14; for increase of planktonic killing by V9T14: at 2 μg/mL antibiotic
# Description: as §1, §2, §3
# [3] = 24 h, antibiotic alone, 24 h, OD650, read-out: MIC, Ab
# [4] = antibiotic without V9T14 (figure legend), read-out: MIC value used in FIG. 21
# [5] = antibiotic alone, 24 h, 4 log10 reduction
SMILES,change of MBEC99.9% by V9T14 ([1]; 5 μg/mL V9T14),biofilm reduction ([1]; antibiotic alone at 4 μg/mL) [log10],"MBEC99.9%, Ab ([1]; antibiotic alone, 24 h) [µg/mL]","MBEC99.9%, AbBs ([1]; 24 h) [µg/mL]",change of MBC99.99% by V9T14 [2],effect of V9T14 on planktonic killing [2],"MIC [2, 3] [µg/mL]","MIC [2, 4] [µg/mL]","MBC [2, 5] [µg/mL]","MBC99.99%, AbBs ([2]; 24 h) [µg/mL]","MIC, Ab ([2]; antibiotic alone, 24 h, OD650) [µg/mL]",concentration at which complete eradication of planktonic cells was observed [2] [µg/mL],planktonic population reduction ([2]; antibiotic alone at 1 μg/mL) [log10],increase of planktonic killing by V9T14 [2] [log10],further results
"CCN1CCN(C(=O)N[C@@H](C(=O)N[C@@H]2C(=O)N3[C@@H]2SC(C)(C)[C@@H]3C(=O)O)c2ccccc2)C(=O)C1=O [Piperacillin, piperacillin]",not affected,1,>32,>32,not affected,no improvement,> 32,32,> 32,>32,,,,,effect of V9T14 on biofilm killing ([1]; 5 μg/mL V9T14): no improvement; synergy with V9T14 (criterion ≧1 log10 decrease) ([1]; 24 h exposure): not able to satisfy our discrimination criterion for synergy identification; planktonic population reduction ([2]; antibiotic alone at 4 μg/mL): 2.7 log10
"Cc1nnc(SCC2=C(C(=O)O)N3C(=O)[C@@H](NC(=O)Cn4cnnn4)[C@H]3SC2)s1 [Cefazolin, cefazolin]",,,,8,,,,8,16,8,1 to 2,32,,,"biofilm reduction ([1]; antibiotic alone, up to highest concentration tested): about 2.2 log10; maximum planktonic killing effect ([2]; 32 μg/mL antibiotic plus V9T14): 8.4 log10; MIC ([2]; 24 h, antibiotic plus 5 μg/mL V9T14, 24 h, OD650, read-out: MIC with V9T14): 8 µg/mL; planktonic killing ([2]; antibiotic alone at 16 μg/mL): more than 4 log10 cfu/mL; maximum planktonic killing effect ([2]; antibiotic alone at 32 μg/mL): 6.9 log10; MIC, Ab ([2]; antibiotic alone, 24 h, OD650, listed as cefazolin): 16 µg/mL"
"CO/N=C(\C(=O)N[C@@H]1C(=O)N2C(C(=O)O)=C(CSc3nc(=O)c(O)nn3C)CS[C@H]12)c1csc(N)n1 [Cefriaxone, ceftriaxone]",,,1 to 2,0.5 to 1,not modified,,,,,0.5 to 1,1 to 2,2,7,1.7,"final enhancement of biofilm removal by V9T14 ([1]; 2 μg/mL antibiotic): 1.2 log10; enhancement of biofilm removal by V9T14 ([1]; 0.25-0.5 μg/mL antibiotic): 0.6 log10; biofilm reduction ([1]; antibiotic alone at 1 μg/mL): 3 log10; further increase of biofilm removal by V9T14 ([1]; for 2 μg/mL antibiotic, on top of the 0.25-0.5 μg/mL increase): 0.6 log10; planktonic population reduction ([2]; antibiotic alone at 0.5 μg/mL): 3 log10; MBC99.99%, Ab [2, 5]: 0.5 to 1 µg/mL; MIC value used in FIG. 21 ([2]; antibiotic without V9T14 (figure legend)): 1 µg/mL"
"NC[C@H]1O[C@H](O[C@H]2[C@H](O)[C@@H](O[C@H]3O[C@H](CO)[C@@H](O)[C@H](N)[C@H]3O)[C@H](N)C[C@@H]2N)[C@H](N)C[C@@H]1O [Tobramycin, tobramycin]",not modified,,2 to 4,2 to 4,not modified,no increase of activity,16 to 32,16,8 to 16,8 to 16,,,,,"increased efficacy against sessile forms by V9T14 ([1]; 16 μg/mL antibiotic): 1 log10; effect on mature biofilm by CLSM (Live/Dead) ([1]; 16 μg/mL antibiotic alone): significant killing of biofilm population; mature biofilm reduction by CLSM (Live/Dead) ([1]; 16 μg/mL antibiotic plus 5 μg/mL V9T14): further increased; biofilm survival subpopulation ([1]; antibiotic alone at 8-16 μg/mL): about 10^2 cfu/mL; biofilm decrease ([1]; antibiotic alone, stabilizing at 8-16 μg/mL): 4 log10; planktonic growth, OD650 ([2]; 4 μg/mL antibiotic alone): 0.31; planktonic growth, OD650 ([2]; 4 μg/mL antibiotic plus 5 μg/mL V9T14): 0.18; concentration giving complete eradication of planktonic population ([2]; antibiotic alone): 16 µg/mL; planktonic population reduction ([2]; antibiotic alone up to 8 μg/mL): 1 log10"
"CC1(C)S[C@@H]2[C@H](NC(=O)[C@H](N)c3ccccc3)C(=O)N2[C@H]1C(=O)O [Ampicillin, ampicillin]",,3,4,0.5 to 1,not modified,,2 to 4,2,1 to 2,1 to 2,,8,,,"surviving biofilm population ([1]; 1 μg/mL antibiotic plus V9T14): 10^1 cfu/peg; biofilm subpopulation remaining viable ([1]; antibiotic alone, 24 h): 10^3 cfu/peg; concentration at which sessile forms were eradicated ([1]; antibiotic plus V9T14): 8 µg/mL; effect on adherent biofilm cells ([1]; association of V9T14 with the antibiotic): complete eradication; enhancement of antibiotic effect on biofilm by V9T14 ([1]; at 1 μg/mL antibiotic): 4 log10; surviving planktonic population ([2]; antibiotic alone up to 16 μg/mL): 10^2 cfu/mL; increase of planktonic killing efficacy by V9T14 ([2]; concentration not given): 2 log10"
"O=C(O)c1cn(C2CC2)c2cc(N3CCNCC3)c(F)cc2c1=O [Ciprofloxacin, ciprofloxacin]",,,,,not modified,,8 to 16,,0.25 to 0.5,0.25 to 0.5,,,6.8,1.4,
